{"source": "paper PMC12446476", "about": "(Nature Communications, 2025)", "test_system": "N. gonorrhoeae", "assay": "MIC determination, agar dilution (CLSI)", "format": "cell-based, Neisseria gonorrhoeae", "settings": "Neisseria gonorrhoeae", "method_in_brief": "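For N. gonorrhoeae, WHO 2024 reference strains served as quality control, only whole doubling-dilution MICs were reported, and isolates were classified by EUCAST v14.0 breakpoints or ECOFF. Time-kill assays followed CLSI in Columbia broth with 1% IsoVitaleX, and viable counts came from plating serial dilutions on GC agar with IsoVitaleX.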", "note": "Where two headings read alike, the source gives them in different places.", "data": [{"smiles": "Cc1c(CN(C)C(=O)/C=C/c2cnc3c(c2)N[C@H](C)[C@H](O)C(=O)N3)oc2ccccc12", "note": "[Debio 1453]", "values": [{"measurement": "MIC", "setting": "clinical N. gonorrhoeae isolate 67, Sweden 2023, read-out: Minimum inhibitory concentration", "value": 0.032, "unit": "µg/mL"}, {"measurement": "MIC", "setting": "clinical N. gonorrhoeae isolate 68, Sweden 2023, read-out: Minimum inhibitory concentration", "value": 0.064, "unit": "µg/mL"}, {"measurement": "MIC", "setting": "clinical N. gonorrhoeae isolate 69, Sweden 2023, read-out: Minimum inhibitory concentration", "value": 0.064, "unit": "µg/mL"}, {"measurement": "MIC", "setting": "clinical N. gonorrhoeae isolate 70, Sweden 2023, read-out: Minimum inhibitory concentration", "value": 0.064, "unit": "µg/mL"}, {"measurement": "MIC", "setting": "clinical N. gonorrhoeae isolate 71, Sweden 2023, read-out: Minimum inhibitory concentration", "value": 0.064, "unit": "µg/mL"}, {"measurement": "MIC", "setting": "clinical N. gonorrhoeae isolate 72, Sweden 2023, read-out: Minimum inhibitory concentration", "value": 0.064, "unit": "µg/mL"}, {"measurement": "MIC", "setting": "clinical N. gonorrhoeae isolate 73, Sweden 2023, read-out: Minimum inhibitory concentration", "value": 0.032, "unit": "µg/mL"}, {"measurement": "MIC", "setting": "clinical N. gonorrhoeae isolate 74, Sweden 2023, read-out: Minimum inhibitory concentration", "value": 0.064, "unit": "µg/mL"}, {"measurement": "MIC", "setting": "clinical N. gonorrhoeae isolate 75, Sweden 2023, read-out: Minimum inhibitory concentration", "value": 0.008, "unit": "µg/mL"}, {"measurement": "MIC", "setting": "clinical N. gonorrhoeae isolate 76, Sweden 2023, read-out: Minimum inhibitory concentration", "value": 0.064, "unit": "µg/mL"}, {"measurement": "MIC", "setting": "clinical N. gonorrhoeae isolate 77, Sweden 2023, read-out: Minimum inhibitory concentration", "value": 0.064, "unit": "µg/mL"}, {"measurement": "MIC", "setting": "clinical N. gonorrhoeae isolate 78, Sweden 2023, read-out: Minimum inhibitory concentration", "value": 0.032, "unit": "µg/mL"}, {"measurement": "MIC", "setting": "clinical N. gonorrhoeae isolate 79, Sweden 2023, read-out: Minimum inhibitory concentration", "value": 0.032, "unit": "µg/mL"}, {"measurement": "MIC", "setting": "clinical N. gonorrhoeae isolate 80, Sweden 2023, read-out: Minimum inhibitory concentration", "value": 0.032, "unit": "µg/mL"}, {"measurement": "MIC", "setting": "clinical N. gonorrhoeae isolate 81, Sweden 2023, read-out: Minimum inhibitory concentration", "value": 0.064, "unit": "µg/mL"}, {"measurement": "MIC", "setting": "clinical N. gonorrhoeae isolate 82, Sweden 2023, read-out: Minimum inhibitory concentration", "value": 0.032, "unit": "µg/mL"}, {"measurement": "MIC", "setting": "clinical N. gonorrhoeae isolate 83, Sweden 2023, read-out: Minimum inhibitory concentration", "value": 0.064, "unit": "µg/mL"}, {"measurement": "MIC", "setting": "clinical N. gonorrhoeae isolate 84, Sweden 2023, read-out: Minimum inhibitory concentration", "value": 0.064, "unit": "µg/mL"}, {"measurement": "MIC", "setting": "clinical N. gonorrhoeae isolate 85, Sweden 2023, read-out: Minimum inhibitory concentration", "value": 0.008, "unit": "µg/mL"}, {"measurement": "MIC", "setting": "clinical N. gonorrhoeae isolate 86, Sweden 2023, read-out: Minimum inhibitory concentration", "value": 0.032, "unit": "µg/mL"}, {"measurement": "MIC", "setting": "clinical N. gonorrhoeae isolate 87, Sweden 2023, read-out: Minimum inhibitory concentration", "value": 0.016, "unit": "µg/mL"}, {"measurement": "MIC", "setting": "clinical N. gonorrhoeae isolate 88, Sweden 2023, read-out: Minimum inhibitory concentration", "value": 0.064, "unit": "µg/mL"}, {"measurement": "MIC", "setting": "clinical N. gonorrhoeae isolate 89, Sweden 2023, read-out: Minimum inhibitory concentration", "value": 0.032, "unit": "µg/mL"}, {"measurement": "MIC", "setting": "clinical N. gonorrhoeae isolate 90, Sweden 2023, read-out: Minimum inhibitory concentration", "value": 0.125, "unit": "µg/mL"}, {"measurement": "MIC", "setting": "clinical N. gonorrhoeae isolate 91, Sweden 2023, read-out: Minimum inhibitory concentration", "value": 0.032, "unit": "µg/mL"}, {"measurement": "MIC", "setting": "clinical N. gonorrhoeae isolate 92, Sweden 2023, read-out: Minimum inhibitory concentration", "value": 0.016, "unit": "µg/mL"}, {"measurement": "MIC", "setting": "clinical N. gonorrhoeae isolate 93, Sweden 2023, read-out: Minimum inhibitory concentration", "value": 0.125, "unit": "µg/mL"}, {"measurement": "MIC", "setting": "clinical N. gonorrhoeae isolate 94, Sweden 2023, read-out: Minimum inhibitory concentration", "value": 0.064, "unit": "µg/mL"}, {"measurement": "MIC", "setting": "clinical N. gonorrhoeae isolate 95, Sweden 2023, read-out: Minimum inhibitory concentration", "value": 0.064, "unit": "µg/mL"}, {"measurement": "MIC", "setting": "clinical N. gonorrhoeae isolate 96, Sweden 2023, read-out: Minimum inhibitory concentration", "value": 0.032, "unit": "µg/mL"}, {"measurement": "MIC", "setting": "clinical N. gonorrhoeae isolate 97, Sweden 2023, read-out: Minimum inhibitory concentration", "value": 0.064, "unit": "µg/mL"}, {"measurement": "MIC", "setting": "clinical N. gonorrhoeae isolate 98, Sweden 2023, read-out: Minimum inhibitory concentration", "value": 0.064, "unit": "µg/mL"}, {"measurement": "MIC", "setting": "clinical N. gonorrhoeae isolate 99, Sweden 2023, read-out: Minimum inhibitory concentration", "value": 0.008, "unit": "µg/mL"}, {"measurement": "MIC", "setting": "clinical N. gonorrhoeae isolate 100, Sweden 2023, read-out: Minimum inhibitory concentration", "value": 0.008, "unit": "µg/mL"}, {"measurement": "MIC", "setting": "read-out: MIC relevant for mutant selection assay, WHO Z", "value": 0.125, "unit": "µg/mL"}, {"measurement": "MIC", "setting": "screening panel N. gonorrhoeae isolate A, read-out: Minimum inhibitory concentration", "value": 0.06, "unit": "µg/mL"}, {"measurement": "MIC", "setting": "screening panel N. gonorrhoeae isolate B, read-out: Minimum inhibitory concentration", "value": 0.03, "unit": "µg/mL"}, {"measurement": "MIC", "setting": "screening panel N. gonorrhoeae isolate C, read-out: Minimum inhibitory concentration", "value": 0.03, "unit": "µg/mL"}, {"measurement": "MIC", "setting": "screening panel N. gonorrhoeae isolate D, read-out: Minimum inhibitory concentration", "value": 0.03, "unit": "µg/mL"}, {"measurement": "MIC", "setting": "screening panel N. gonorrhoeae isolate E, read-out: Minimum inhibitory concentration", "value": 0.03, "unit": "µg/mL"}, {"measurement": "MIC", "setting": "screening panel N. gonorrhoeae isolate F, read-out: Minimum inhibitory concentration", "value": 0.125, "unit": "µg/mL"}, {"measurement": "MIC", "setting": "screening panel N. gonorrhoeae isolate G, read-out: Minimum inhibitory concentration", "value": 0.125, "unit": "µg/mL"}, {"measurement": "MIC", "setting": "screening panel N. gonorrhoeae isolate H, read-out: Minimum inhibitory concentration", "value": 0.06, "unit": "µg/mL"}, {"measurement": "MIC", "setting": "screening panel N. gonorrhoeae isolate I, read-out: Minimum inhibitory concentration", "value": 0.03, "unit": "µg/mL"}]}]}
